Values after ≈ are worked out from the molar mass of the structure shown. Where a name gives a salt, the structure may show the parent alone.

The subject of data set [1] is Ps. maltophilia, IID-1275. As to the kind of experiment: antimicrobial activity (MIC), standard method of the Japan Society of Chemotherapy. Particulars: for MIC: Stenotrophomonas maltophilia, IID1275, IID-1275 (Table 5: X. maltophilia, IID-1275), read-out: minimum inhibitory concentration (MIC). Format: cell-based. On the procedure: (§1) Examples of the first and second aspects of the present invention are given below by way of illustration and not by way of limitation. In this regard, the antibacterial and antimicrobial activities of the compounds of interest were measured in accordance with the standard method specified by the Japan Society of Chemotherapy. The results are shown in Tables 1 to 5 as a minimum inhibitory concentration (MIC, μg/ml). Unless otherwise indicated, all percents (%) are by weight.

Data set [2] has as its system Slc:ddy five week male mice. As to the kind of experiment: acute toxicity, intravenous, mice. Format: in vivo. As to conditions: for acute toxicity result compared with the table above: stated in words. As for the experimental part: A solution of 5-amino-7-[4-(R)-(1-aminocyclopropyl)-3-(S)-fluoro-1-pyrrolidinyl]-6-fluoro-1-[2-(S)-fluoro-1-(R)-cyclopropyl]-1,4-dihydro-8-methyl-4-oxoquinoline-3-carboxylic acid (abbreviated as cis) hydrochloride of Example 15 or 5-amino-7-[4-(R)-(1-aminocyclopropyl)-3-(R)-fluoro-1-pyrrolidinyl]-6-fluoro-1-[2-(S)-fluoro-1-(R)-cyclopropyl]-1,4-dihydro-8-methyl-4-oxoquinoline-3-carboxylic acid (abbreviated as trans) hydrochloride in distilled water for injection was administered intravenously to Slc:ddy five week male mice (five mice per group) and the symptoms are observed.

Data set [3] has as its system E. coli, NIHJ. As to the kind of experiment: antimicrobial activity (MIC), standard method of the Japan Society of Chemotherapy. Format: cell-based. Particulars: Escherichia coli, read-out: minimum inhibitory concentration (MIC). On the procedure: as §1
[4] abbreviates: 150 mg/kg, *: died immediately after administration, test stopped when second mouse died.

As to `C[C@H]1COc2c(N3C[C@@H](F)[C@@H](C4(N)CC4)C3)c(F)cc3c(=O)c(C(=O)O)cn1c23.Cl` [Example 19, 10-[4-(R)-(1-Aminocyclopropyl)-3-(S)-fluoro-1-pyrrolidinyl]-9-fluoro-2,3-dihydro-3-(S)-methyl-7-oxo-7H-pyrido[1,2,3-de][1,4]benzoxazine-6-carboxylic acid hydrochloride], in data set [1], the MIC was determined as 0.39 µg/mL. For `Cc1c(N2C[C@@H](CO)[C@@H](C3(N)CC3)C2)c(F)c(N)c2c(=O)c(C(=O)O)cn(C3CC3)c12` (relative stereo) [Example 14, 5-Amino-7-[cis-4-(1-aminocyclopropyl)-3-hydroxymethyl-1-pyrrolidinyl]-1-cyclopropyl-6-fluoro-1,4-dihydro-8-methyl-4-oxoguinoline-3-carboxylic acid], the “acute toxicity result compared with the table above” value in data set [2] (150 mg/kg) was “same result”. Turning to `Cc1c(N2C[C@@H](F)[C@@H](C3(N)CC3)C2)c(F)c(N)c2c(=O)c(C(=O)O)cn([C@@H]3C[C@@H]3F)c12` [Example 15, 5-Amino-7-[4-(R)-(1-aminocyclopropyl)-3-(S)-fluoro-1-pyrrolidinyl]-6-fluoro-1-[2-(S)-fluoro-1-(R)-cycloproyl]-1,4-dihydro-8-methyl-4-oxoguinoline-3-carboxylic acid hydrochloride], in data set [2] (setting [4]), the Number of death is recorded as 0/5. The MIC in data set [1] stood at 0.05 µg/mL. On to `C[C@H]1COc2c(N3C[C@@H](F)[C@@H](C4(N)CC4)C3)c(F)cc3c(=O)c(C(=O)O)cn1c23` [Example 17, 10-[4-(R)-(1-Aminocyclopropyl)-3-(S)-fluoro-1-pyrrolidinyl]-9-fluoro-2,3-dihydro-3-(S)-methyl-7-oxo-7H-pyrido[1,2,3-de][1,4]benzoxazine-6-carboxylic acid], for which the “acute toxicity result compared with the table above” value in data set [2] (150 mg/kg) was “same result”. In the case of `C[C@H]1COc2c(N3C[C@@H](F)[C@@H](C4(N)CC4)C3)c(F)c(N)c3c(=O)c(C(=O)O)cn1c23` [Example 21, 8-Amino-10-[4-(R)-(1-aminocyclopropyl)-3-(S)-fluoro-1-pyrrolidinyl]-9-fluoro-2,3-dihydro-3-(S)-methyl-7-oxo-7H-pyrido[1,2,3]-de[1,4]benzoxazine-6-carboxylic acid], the “acute toxicity result compared with the table above” value in data set [2] (150 mg/kg) is listed as “same result”. In addition, in data set [1], the MIC is 0.39 µg/mL (≈ 0.928 µM). In the case of `COc1c(N2C[C@@H](F)[C@@H](C3(N)CC3)C2)c(F)cc2c(=O)c(C(=O)O)cn([C@@H]3C[C@@H]3F)c12` [Example 12, 7-[4-(R)-(1-Aminocyclopropyl)-3-(S)-fluoro-1-pyrrolidinyl]-6-fluoro-1-[2-(S)-fluoro-1-(R)-cyclopropyl]-1,4-dihydro-8-methoxy-4-oxoguinoline-3-carboxylic acid], in data set [2] (150 mg/kg), the “acute toxicity result compared with the table above” value was “same result”. Moreover, the MIC in data set [3] was not above 0.013 µg/mL.

For the compound `COc1c(N2C[C@@H](F)[C@@H](C3(N)CC3)C2)c(F)c(N)c2c(=O)c(C(=O)O)cn([C@@H]3C[C@@H]3F)c12` [Example 16, 5-Amino-7-[4-(R)-(1-aminocyclopropyl)-3-(S)-fluoro-1-pyrrolidinyl]-6-fluoro-1-[2-(S)-fluoro-1-(R)-cyclopropyl]-1,4-dihydro-8-methoxy-4-oxoquinoline-3-carboxylic acid], in data set [2] (150 mg/kg), the “acute toxicity result compared with the table above” value is “same result”. Further, the MIC in data set [1] stood at 0.2 µg/mL (≈ 0.442 µM). Consider `Cc1c(N2C[C@H](F)[C@@H](C3(N)CC3)C2)c(F)c(N)c2c(=O)c(C(=O)O)cn([C@@H]3C[C@@H]3F)c12` [Example 5, 5-Amino-7-[4-(R)-(1-aminocyclopropyl)-3-(R)-fluoro-1-pyrrolidinyl]-6-fluoro-1-[2-(S)-fluoro-1-(R)-cyclopropyl]-1,4-dihydro-8-methyl-4-oxoquinoline-3-carboxylic acid hydrochloride], for which the Number of death is reported as 0/5 in data set [2] (50 mg/kg); 2/2 in data set [2] (100 mg/kg, *: died immediately after administration, test stopped when second mouse died); 2/2 in data set [2] (setting [4]).

Regarding `Cc1c(N2C[C@@H](F)[C@@H](C3(N)CCC3)C2)c(F)c(N)c2c(=O)c(C(=O)O)cn([C@@H]3C[C@@H]3F)c12` (single isomer, unassigned; isomer b) [Example 13], the “acute toxicity result compared with the table above” value in data set [2] (150 mg/kg) was “same result”. In addition, in data set [1] (IID-1275 (Table 5: X. maltophilia, IID-1275)), the “minimum inhibitory concentration (MIC)” value is 0.20 µg/mL (≈ 0.444 µM).

(Values after patent US6184388A, “Substituted aminocycloalkylpyrrolidine derivatives and cis-substituted aminocycloalkylpyrrolidine derivatives” (Daiichi Pharmaceutical Co., Ltd., priority 1995, dated 2001).)
